Measured values: patent US8703779B2, “Preparation of crystalline forms of dihydropyrazolopyrimidinone” (Merck Sharp & Dohme Corp., priority 2009, dated 2014)

Legend:
Weel kinase = Weel kinase (Homo sapiens, UniProt P30291); conditions: cited from earlier work
[1] = relative thermodynamic stability of crystalline forms; format: physicochemical
Procedure: The novel crystalline forms of Compound A or a salt thereof, especially the hemihydrates described herein, can be provided stably and constantly from the standpoint of the manufacturing process, and are useful in the treatment of cancer. […] The relative stability of the hemihydrates and monohydrate Form G at relative humidity higher than 93% has been difficult to establish, because the solubility of the three crystalline forms are very close (difference <1 mg/mL) and the conversion is very slow.

Sequence of Weel kinase (P30291 whole entry): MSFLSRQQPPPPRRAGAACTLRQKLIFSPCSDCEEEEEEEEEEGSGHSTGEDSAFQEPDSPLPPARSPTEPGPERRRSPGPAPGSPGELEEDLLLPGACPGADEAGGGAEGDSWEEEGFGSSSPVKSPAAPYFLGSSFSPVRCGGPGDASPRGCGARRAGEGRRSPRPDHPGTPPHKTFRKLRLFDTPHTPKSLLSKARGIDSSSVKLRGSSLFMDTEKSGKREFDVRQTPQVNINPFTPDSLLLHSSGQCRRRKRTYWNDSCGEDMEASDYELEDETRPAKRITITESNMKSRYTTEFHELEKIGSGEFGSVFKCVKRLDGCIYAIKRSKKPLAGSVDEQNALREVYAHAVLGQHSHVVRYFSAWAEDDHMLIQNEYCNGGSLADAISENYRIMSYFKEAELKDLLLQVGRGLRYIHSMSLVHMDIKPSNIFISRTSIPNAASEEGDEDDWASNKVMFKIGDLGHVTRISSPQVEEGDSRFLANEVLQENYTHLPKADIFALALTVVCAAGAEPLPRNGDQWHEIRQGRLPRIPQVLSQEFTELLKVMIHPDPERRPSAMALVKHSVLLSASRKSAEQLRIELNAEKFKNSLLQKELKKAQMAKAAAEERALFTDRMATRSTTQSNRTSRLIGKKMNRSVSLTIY

C=CCn1c(=O)c2cnc(Nc3ccc(N4CCN(C)CC4)cc3)nc2n1-c1cccc(C(C)(C)O)n1 [Compound A, 2-allyl-1-[6-(1-hydroxy-1-methylethyl)pyridin-2-yl]-6-{[4-(4-methylpiperazin-1-yl)phenyl]amino}-1,2-dihydro-3H-pyrazolo[3,4-d]pyrimidin-3-one]
Weel kinase inhibitory effect (Weel kinase): excellent Weel kinase inhibitory effect

C=CCn1c(=O)c2cnc(Nc3ccc(N4CCN(C)CC4)cc3)nc2n1-c1cccc(C(C)(C)O)n1 [crystalline hemihydrate form I, 2-allyl-1-[6-(1-hydroxy-1-methylethyl)pyridin-2-yl]-6-{[4-(4-methylpiperazin-1-yl)phenyl]amino}-1,2-dihydro-3H-pyrazolo[3,4-d]pyrimidin-3-one]
thermodynamic stability relative to other known forms ([1]; temperatures up to 44° C. and relative humidity range of 14-93%): more stable thermodynamically than other known forms

C=CCn1c(=O)c2cnc(Nc3ccc(N4CCN(C)CC4)cc3)nc2n1-c1cccc(C(C)(C)O)n1 [crystalline hemihydrate form II, 2-allyl-1-[6-(1-hydroxy-1-methylethyl)pyridin-2-yl]-6-{[4-(4-methylpiperazin-1-yl)phenyl]amino}-1,2-dihydro-3H-pyrazolo[3,4-d]pyrimidin-3-one]
thermodynamic stability relative to other known forms ([1]; temperatures equal or higher than 48° C. and relative humidity range of 19-93%): more stable thermodynamically than other known forms
